Measurements: ChEMBL document CHEMBL1123826, “Nitrogen bridgehead compounds. 66. Bronchodilator nitrogen bridgehead compounds with a pyrimidinone moiety” (J Med Chem, 1987)

Columns and labels:
[1] = Relative potency calculated from ratio of IC50 of theophylline / IC50 was determined; format: functional
[2] = species: Cavia porcellus; assay: Bronchodilator activity against serotonin-induced spasm in guinea pig; format: functional; details: read-out: ID50 (the source's name)
[3] = species: Cavia porcellus; assay: Bronchodilator activity against acetylcholine-induced spasm in guinea pig; format: functional; details: read-out: ID50 (the source's name)
[4] = species: Cavia porcellus; assay: Bronchodilator activity against histamine-induced spasm in guinea pig; format: functional; details: read-out: ID50 (the source's name)
[5] = tested on: Cavia porcellus; assay: Compound was tested for Bronchodilator activity against serotonin-induced spasm in guinea pig by Konzett-Rossler test; dose administered by intraduodenal route.; format: functional; details: read-out: ID50 (the source's name)
[6] = tested on: Cavia porcellus; assay: Compound was tested for Bronchodilator activity against histamine-induced spasm in guinea pig by Konzett-Rossler test; dose administered by intraduodenal route.; format: functional; details: read-out: ID50 (the source's name)
[7] = tested on: Cavia porcellus; assay: Compound was tested for Bronchodilator activity against acetylcholine-induced spasm in guinea pig by Konzett-Rossler test; dose administered by intraduodenal route.; format: functional; details: read-out: ID50 (the source's name)
[8] = species: Cavia porcellus; assay: […] activity was evaluated by inhibition of BaCl2 induced spasm in isolated guinea pig ileum; format: functional
[9] = species: Cavia porcellus; assay: […] activity was evaluated by inhibition of histamine induced spasm in isolated guinea pig ileum; format: functional
[10] = Ratio of pA2 to pD2 was determined on isolated guinea pig trachea; format: functional
[11] = species: Cavia porcellus; assay: […] activity was evaluated by inhibition of serotonin induced spasm in isolated guinea pig ileum; format: functional
[12] = species: Cavia porcellus; assay: […] activity was evaluated by inhibition of nicotinate induced spasm in isolated guinea pig ileum; format: functional
[13] = species: Homo sapiens; assay: Compound was tested for Bronchodilator activity against isolated human bronchus contracted by carbachol; format: functional
[14] = species: Cavia porcellus; assay: […] activity was evaluated by inhibition of acetylcholine induced spasm in isolated guinea pig ileum; format: functional
[15] = species: Cavia porcellus; assay: Compound was tested for Anticholenergic activity on isolated guinea pig trachea contracted by carbachol; format: functional
[16] = Relative potency is ratio of IC50 of theophylline / IC50 was determined; format: functional
[17] = species: Homo sapiens; assay: compound was tested for Bronchodilator activity against isolated human bronchus contracted by carbachol; format: functional; details: Homo sapiens, Bronchus; read-out: IC50
[18] = species: Cavia porcellus; assay: Compound was tested for Bronchodilator activity against acetylcholine-induced spasm in guinea pig by Konzett-Rossler test; format: organism-based; details: in vivo

| Compound | ED50 [2] | ED50 [3] | ED50 [4] | further results |
| --- | --- | --- | --- | --- |
| O=c1c2c(nc3n1CCCCC3)CCCC2 [listing 1 of 2 here] | – | – | – | Relative potency [1]: 28 |
| O=c1c2c(nc3n1CCCCC3)CCCCCC2 | > 100 µmol/kg | 2.26 µmol/kg | 33 µmol/kg | – |
| Cc1cccc2nc3c(c(=O)n12)CCC3 | 4.3 µmol/kg | 29.3 µmol/kg | 7.2 µmol/kg | – |
| CC1CCCc2nc3c(c(=O)n21)CCCC3 (stereo not drawn) | 14 µmol/kg | 20.3 µmol/kg | 24.7 µmol/kg | – |
| CC1CCc2nc3c(c(=O)n2C1)CCCC3 (stereo not drawn) | 38.1 µmol/kg | 28.9 µmol/kg | 23.6 µmol/kg | – |
| O=C(O)c1ccc2c(=O)n3c(nc2c1)CCCCC3 | > 100 µmol/kg | > 100 µmol/kg | > 100 µmol/kg | – |
| Cc1ccn2c(=O)c3c(nc2c1)CCC3 | 22.6 µmol/kg | 29.6 µmol/kg | 15.7 µmol/kg | – |
| O=c1c2c(nc3n1CCCC3)CCC2 | 24.1 µmol/kg | 23.7 µmol/kg | 25.7 µmol/kg | – |
| O=c1nc2n(c3c1CCCC3)CCCCC2 | 55.1 µmol/kg | > 32 µmol/kg | > 32 µmol/kg | – |
| Cc1ccc2nc3c(c(=O)n2c1)CCCC3 | 20.4 µmol/kg | 32 µmol/kg | 15.6 µmol/kg | – |
| CC1CCCc2nc3ccccc3c(=O)n21 (stereo not drawn) | 30.2 µmol/kg | > 100 µmol/kg | 27 µmol/kg | – |
| COC(=O)c1ccc2nc3n(c(=O)c2c1)CCC3 | 11.7 µmol/kg | 44.1 µmol/kg | 27 µmol/kg | – |
| CC1CCCCn2c1nc1c(c2=O)CCCC1 (stereo not drawn) | – | – | – | ED50 [5]: > 320 µmol/kg; ED50 [6]: > 320 µmol/kg; ED50 [7]: > 320 µmol/kg |
| O=c1c2c(nc3n1CCCCC3)CCCCC2 | 30.8 µmol/kg | 7.2 µmol/kg | 33.8 µmol/kg | – |
| S=c1c2c(nc3n1CCCCC3)CCCC2 | > 320 µmol/kg | > 320 µmol/kg | > 320 µmol/kg | – |
| O=C(O)c1ccc2c(=O)n3c(nc2c1)CCCC3 | > 100 µmol/kg | > 100 µmol/kg | > 100 µmol/kg | – |
| CCc1c(C)nc2ccc(C)cn2c1=O | 16.6 µmol/kg | 24 µmol/kg | 12.4 µmol/kg | – |
| CC1CCc2nc3c(c(=O)n21)CCCC3 (stereo not drawn) | 46.8 µmol/kg | 74.6 µmol/kg | 19.7 µmol/kg | – |
| Cc1cccc2nc3c(c(=O)n12)CCCC3 | 6.1 µmol/kg | 10 µmol/kg | 9.7 µmol/kg | – |

| Compound | ED50 [2] | ED50 [3] | ED50 [4] | further results |
| --- | --- | --- | --- | --- |
| Cl.O=c1c2c(nc3n1CCCCC3)CCCC2 | – | – | – | IC50 [8]: 123 uM l-1; IC50 [9]: > 100 µM; Ratio [10]: 1.06; IC50 [11]: 752 uM l-1; IC50 [12]: 49.5 µM; IC50 [13]: 5.4 µM; IC50 [14]: 5.01 µM; pD2 [15]: 5.39; Kb ([15]; read-out: pA2 (converted)): 1.91 µM |
| O=c1c2c(nc3n1CCCCC3)CCCC2 [listing 2 of 2 here] | 3 µmol/kg | – | 3 µmol/kg | – |
| O=c1c2cc3c(cc2nc2n1CCCCC2)OCO3 | 13.1 µmol/kg | 22.7 µmol/kg | > 32 µmol/kg | – |
| O=c1c2ccccc2nc2n1CCCC2 | 15.2 µmol/kg | 31.1 µmol/kg | 11.1 µmol/kg | – |
| CC1CCn2c(nc3c(c2=O)CCCC3)C1 (stereo not drawn) | 39.3 µmol/kg | 29.9 µmol/kg | 25.7 µmol/kg | – |
| Cc1cccn2c(=O)c3c(nc12)CCCC3 | 15.6 µmol/kg | 15.7 µmol/kg | 7 µmol/kg | Relative potency [16]: 2.26; IC50 [17]: 66.6 µM |
| CC1CCCn2c1nc1c(c2=O)CCC1 (stereo not drawn) | 7.7 µmol/kg | 12.8 µmol/kg | 11.5 µmol/kg | – |
| CCc1c(C)nc2cc(C)ccn2c1=O | 29.7 µmol/kg | 36.7 µmol/kg | 20.9 µmol/kg | – |
| Cc1ccc2nc3c(c(=O)n2c1)CCC3 | 14.4 µmol/kg | 29.1 µmol/kg | 29.2 µmol/kg | – |
| O=c1c2c(nc3n1CCC3)CCCCC2 | 33 µmol/kg | 38.5 µmol/kg | 27.6 µmol/kg | – |
| O=C(O)c1ccc2c(=O)n3c(nc2c1)CCC3 | > 100 µmol/kg | > 100 µmol/kg | > 100 µmol/kg | – |
| CC1CCCc2nc3c(c(=O)n21)CCC3 (stereo not drawn) | 13.8 µmol/kg | 18.2 µmol/kg | 11.7 µmol/kg | – |
| O=c1nc2n(c3c1CCCCC3)CCC2 | > 32 µmol/kg | – | > 32 µmol/kg | ID50 [18]: > 32 µM/kg |
| Cc1cccn2c(=O)c3c(nc12)CCCCCC3 | 14.3 µmol/kg | 42.6 µmol/kg | 23.8 µmol/kg | – |
| CCc1c(C)nc2n(c1=O)CCC(C)C2 (stereo not drawn) | 18.4 µmol/kg | 28.2 µmol/kg | 23.2 µmol/kg | Relative potency [16]: 2.02; IC50 [17]: 74.6 µM |
| CC1CCCn2c1nc1c(c2=O)CCCC1 (stereo not drawn) | 36.2 µmol/kg | 47.1 µmol/kg | 19.8 µmol/kg | – |
| S=c1c2c(nc3n1CCCCC3)CCC2 | > 320 µmol/kg | > 320 µmol/kg | > 320 µmol/kg | – |
| CCc1c(C)nc2c(C)cccn2c1=O | 12.3 µmol/kg | 36.4 µmol/kg | 5.1 µmol/kg | – |
